Reference: ChEMBL document CHEMBL4665700, “Cytotoxic Bufadienolides from the Leaves of Melianthus major” (J Nat Prod, 2020)
The source made the active and inactive calls. The rule behind the calls is not given here.

Key:
Assay type in all cases: functional
CCRF-CEM [1] = test: Cytotoxicity against human CCRF-CEM cells assessed as reduction in cell viability after 72 hrs by resazurin dye-based fluorescence assay
ADR5000 cell line [2] = test: Cytotoxicity against human CEM/ADR5000 cells assessed as reduction in cell viability after 72 hrs by resazurin dye-based fluorescence assay; details: ADR5000, 72 h
MCF7 [3] = test: Cytotoxicity against human MCF7 cells assessed as reduction in cell viability after 72 hrs by resazurin dye-based fluorescence assay; details: MCF7, 72 h
ADR5000 cell line [4] = test: Cytotoxicity against human CEM/ADR5000 cells assessed as reduction in cell viability at 10 uM after 72 hrs by resazurin dye-based fluorescence assay
CCRF-CEM [5] = test: Cytotoxicity against human CCRF-CEM cells assessed as reduction in cell viability at 10 uM after 72 hrs by resazurin dye-based fluorescence assay
MCF7 [6] = test: Cytotoxicity against human MCF7 cells assessed as reduction in cell viability at 10 uM after 72 hrs by resazurin dye-based fluorescence assay

| Compound | IC50 (CCRF-CEM [1]) [nM] | IC50 (ADR5000 cell line [2]) [nM] | IC50 (MCF7 [3]) [nM] | Activity (ADR5000 cell line [4]) | Activity (CCRF-CEM [5]) | Activity (MCF7 [6]) |
| --- | --- | --- | --- | --- | --- | --- |
| CC(=O)O[C@H]1C[C@]2(C=O)[C@H]3CC[C@]4(C)[C@@H](c5ccc(=O)oc5)CC[C@]4(O)[C@@H]3CC[C@]2(OC(C)=O)C[C@H]1OC(C)=O | 100 | 100 | 300 | – | – | – |
| CC(=O)O[C@H]1C[C@]2(C=O)[C@H]3CC[C@]4(C)[C@@H](c5ccc(=O)oc5)CC[C@]4(O)[C@@H]3CC[C@]2(O)C[C@H]1OC(C)=O | 500 | 500 | 3500 | – | – | – |
| CC(=O)OC[C@]12[C@@H]3OC4(C)O[C@H](C[C@]1(CC[C@@H]1[C@@H]2CC[C@]2(C)[C@@H](c5ccc(=O)oc5)CC[C@]12O)O4)[C@H]3O | – | – | – | inactive | inactive | inactive |
| C[C@@]12O[C@H]3C[C@@H](O1)[C@]1(C=O)[C@H]4CC[C@@]5(C)[C@@H]([C@@H]4CC[C@@]1(C3)O2)[C@@H]1O[C@@H]1[C@@H]5c1ccc(=O)oc1 | 1600 | 1600 | 4500 | – | – | – |
| CC(=O)OC[C@]12[C@H]3C[C@H]4C[C@]1(CC[C@@H]1[C@@H]2CC[C@]2(C)[C@@H](c5ccc(=O)oc5)CC[C@]12O)OC(C)(O4)O3 | – | – | – | inactive | inactive | inactive |
| CC(=O)OC[C@]12[C@@H]3OC4(C)O[C@H](C[C@]1(CC[C@@H]1[C@@H]2CC[C@]2(C)[C@@H](c5ccc(=O)oc5)[C@H]5O[C@H]5[C@]12O)O4)[C@H]3OC(C)=O | – | – | – | inactive | inactive | inactive |
| CC(=O)O[C@H]1[C@H]2O[C@@]3(C)O[C@@H]1C[C@]1(CC[C@H]4[C@H]5[C@@H]6O[C@@H]6[C@H](c6ccc(=O)oc6)[C@@]5(C)CC[C@@H]4[C@@]21C=O)O3 | 1600 | 1800 | 4300 | – | – | – |
| COc1cccc2c1C(=O)c1c(O)c3c(c(O)c1C2=O)C[C@@](O)(C(=O)CO)C[C@@H]3O[C@H]1C[C@H](N)[C@H](O)[C@H](C)O1 [DOXORUBICIN] | 20 | – | 180 | – | – | – |
| C[C@@]12O[C@H]3C[C@@H](O1)[C@]1(C=O)[C@H]4CC[C@]5(C)[C@@H](c6ccc(=O)oc6)CC[C@]5(O)[C@@H]4CC[C@@]1(C3)O2 | 200 | 200 | 1000 | – | – | – |
| C[C@@]12O[C@H]3C[C@@H](O1)[C@]1(C=O)[C@H]4CC[C@]5(C)[C@@H](c6ccc(=O)oc6)[C@@H](O)C[C@]5(O)[C@@H]4CC[C@@]1(C3)O2 | 600 | 800 | 3100 | – | – | – |
